Experimental data from PubChem BioAssay (NCI).
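Results reflect a 48-hour exposure of cells in 96-well plates to compound at five concentrations. The concentration for 50% growth inhibition is given as GI50. TGI: total growth inhibition.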

Tests used:
Assay in all cases: NCI anticancer screen, dose series, 48 h
SNB-19 CNS = tested on: SNB-19 CNS
SK-MEL-2 melanoma = tested on: SK-MEL-2 melanoma
U251 CNS = tested on: U251 CNS
K-562 leukemia = tested on: K-562 leukemia
A549 NSCLC = tested on: A549 NSCLC
SF-539 CNS = tested on: SF-539 CNS
HOP-92 NSCLC = tested on: HOP-92 NSCLC
BT-549 breast = tested on: BT-549 breast
TK-10 renal = tested on: TK-10 renal
SK-MEL-5 melanoma = tested on: SK-MEL-5 melanoma
MCF7 breast = tested on: MCF7 breast
MDA-MB-435 = tested on: MDA-MB-435
OVCAR-3 ovarian = tested on: OVCAR-3 ovarian
HT29 colon = tested on: HT29 colon
SF-295 CNS = tested on: SF-295 CNS
OVCAR-5 ovarian = tested on: OVCAR-5 ovarian
MDA-MB-231 breast = tested on: MDA-MB-231 breast
OVCAR-4 ovarian = tested on: OVCAR-4 ovarian
SK-OV-3 ovarian = tested on: SK-OV-3 ovarian
SK-MEL-28 melanoma = tested on: SK-MEL-28 melanoma
T-47D breast = tested on: T-47D breast
DU-145 prostate = tested on: DU-145 prostate
HCT-116 colon = tested on: HCT-116 colon
RXF 393 renal = tested on: RXF 393 renal
EKVX NSCLC = tested on: EKVX NSCLC
SW-620 colon = tested on: SW-620 colon
A498 renal = tested on: A498 renal
UACC-62 melanoma = tested on: UACC-62 melanoma
SN12C renal = tested on: SN12C renal
NCI-H522 lung = tested on: NCI-H522 lung
CCRF-CEM leukemia = tested on: CCRF-CEM leukemia
ACHN renal = tested on: ACHN renal
MALME-3M melanoma = tested on: MALME-3M melanoma
SR leukemia = tested on: SR leukemia
786-0 renal = tested on: 786-0 renal
HCT-15 colon = tested on: HCT-15 colon
HCC-2998 colon = tested on: HCC-2998 colon
HS 578T breast = tested on: HS 578T breast
MOLT-4 leukemia = tested on: MOLT-4 leukemia
COLO 205 colon = tested on: COLO 205 colon
SNB-75 CNS = tested on: SNB-75 CNS
HL-60(TB) leukemia = tested on: HL-60(TB) leukemia
UACC-257 melanoma = tested on: UACC-257 melanoma
KM12 colon = tested on: KM12 colon
RPMI-8226 leukemia = tested on: RPMI-8226 leukemia
NCI-H226 lung = tested on: NCI-H226 lung
NCI-H460 lung = tested on: NCI-H460 lung
IGROV1 ovarian = tested on: IGROV1 ovarian
M14 melanoma = tested on: M14 melanoma
NCI/ADR-RES ovarian = tested on: NCI/ADR-RES ovarian
LOX IMVI melanoma = tested on: LOX IMVI melanoma
SF-268 CNS = tested on: SF-268 CNS
OVCAR-8 ovarian = tested on: OVCAR-8 ovarian
UO-31 renal = tested on: UO-31 renal
PC-3 prostate = tested on: PC-3 prostate
HOP-62 NSCLC = tested on: HOP-62 NSCLC
CAKI-1 renal = tested on: CAKI-1 renal

Which GI50 (SNB-19 CNS) does the source give for `C/C(=C(/c1ccc(O)cc1)c1ccc(OCCN2CCCCCC2)cc1)c1ccccc1` here?
The GI50 was > 100 µM.

What about the TGI (SNB-19 CNS) of the same molecule?
Its TGI is > 100 µM.

And the GI50 (SK-MEL-2 melanoma)?
The GI50 was > 100 µM.

And the TGI (SK-MEL-2 melanoma)?
Its TGI is > 100 µM.

What about the GI50 (U251 CNS) of the same molecule?
The GI50 was 69.9 µM.

And the TGI (U251 CNS)?
The TGI was > 100 µM.

What about the GI50 (K-562 leukemia) of the same molecule?
The GI50 was 22.7 µM.

What about the TGI (K-562 leukemia) of the same molecule?
Its TGI is > 100 µM.

And the GI50 (A549 NSCLC)?
Its GI50 is > 100 µM.

And the TGI (A549 NSCLC)?
Its TGI is > 100 µM.

What about the GI50 (SF-539 CNS) of the same molecule?
The GI50 was 61.3 µM.

What about the TGI (SF-539 CNS) of the same molecule?
Its TGI is > 100 µM.

What about the GI50 (HOP-92 NSCLC) of the same molecule?
The GI50 was 61.8 µM.

And the TGI (HOP-92 NSCLC)?
Its TGI is > 100 µM.

And the GI50 (BT-549 breast)?
Its GI50 is > 100 µM.

What about the TGI (BT-549 breast) of the same molecule?
Its TGI is > 100 µM.

What about the GI50 (TK-10 renal) of the same molecule?
The GI50 was > 100 µM.

And the TGI (TK-10 renal)?
The TGI was > 100 µM.

What about the GI50 (SK-MEL-5 melanoma) of the same molecule?
The GI50 was 66.1 µM.

And the TGI (SK-MEL-5 melanoma)?
The TGI was > 100 µM.

And the GI50 (MCF7 breast)?
Its GI50 is 0.0615 µM.

What about the TGI (MCF7 breast) of the same molecule?
Its TGI is > 100 µM.

And the GI50 (MDA-MB-435)?
Its GI50 is > 100 µM.

And the TGI (MDA-MB-435)?
Its TGI is > 100 µM.

And the GI50 (OVCAR-3 ovarian)?
Its GI50 is > 100 µM.

And the TGI (OVCAR-3 ovarian)?
Its TGI is > 100 µM.

And the GI50 (HT29 colon)?
Its GI50 is 27.7 µM.

And the TGI (HT29 colon)?
The TGI was > 100 µM.

What about the GI50 (SF-295 CNS) of the same molecule?
Its GI50 is 93.3 µM.

And the TGI (SF-295 CNS)?
The TGI was > 100 µM.

What about the GI50 (OVCAR-5 ovarian) of the same molecule?
Its GI50 is > 100 µM.

What about the TGI (OVCAR-5 ovarian) of the same molecule?
Its TGI is > 100 µM.

And the GI50 (MDA-MB-231 breast)?
The GI50 was > 100 µM.

And the TGI (MDA-MB-231 breast)?
The TGI was > 100 µM.

What about the GI50 (OVCAR-4 ovarian) of the same molecule?
Its GI50 is > 100 µM.

And the TGI (OVCAR-4 ovarian)?
Its TGI is > 100 µM.

What about the GI50 (SK-OV-3 ovarian) of the same molecule?
Its GI50 is > 100 µM.

What about the TGI (SK-OV-3 ovarian) of the same molecule?
The TGI was > 100 µM.

And the GI50 (SK-MEL-28 melanoma)?
The GI50 was 42.9 µM.

What about the TGI (SK-MEL-28 melanoma) of the same molecule?
The TGI was > 100 µM.

And the GI50 (T-47D breast)?
The GI50 was 11.5 µM.

And the TGI (T-47D breast)?
The TGI was > 100 µM.

What about the GI50 (DU-145 prostate) of the same molecule?
Its GI50 is > 100 µM.

What about the TGI (DU-145 prostate) of the same molecule?
Its TGI is > 100 µM.

What about the GI50 (HCT-116 colon) of the same molecule?
The GI50 was 34.1 µM.

And the TGI (HCT-116 colon)?
Its TGI is > 100 µM.

What about the GI50 (RXF 393 renal) of the same molecule?
The GI50 was 31.2 µM.

What about the TGI (RXF 393 renal) of the same molecule?
Its TGI is > 100 µM.

And the GI50 (EKVX NSCLC)?
Its GI50 is > 100 µM.

And the TGI (EKVX NSCLC)?
Its TGI is > 100 µM.

And the GI50 (SW-620 colon)?
Its GI50 is 25.5 µM.

And the TGI (SW-620 colon)?
The TGI was 75.5 µM.

And the GI50 (A498 renal)?
Its GI50 is > 100 µM.

What about the TGI (A498 renal) of the same molecule?
The TGI was > 100 µM.

What about the GI50 (UACC-62 melanoma) of the same molecule?
The GI50 was > 100 µM.

And the TGI (UACC-62 melanoma)?
Its TGI is > 100 µM.

What about the GI50 (SN12C renal) of the same molecule?
The GI50 was > 100 µM.

And the TGI (SN12C renal)?
The TGI was > 100 µM.

And the GI50 (NCI-H522 lung)?
Its GI50 is > 100 µM.

What about the TGI (NCI-H522 lung) of the same molecule?
Its TGI is > 100 µM.

And the GI50 (CCRF-CEM leukemia)?
Its GI50 is 76.2 µM.

What about the TGI (CCRF-CEM leukemia) of the same molecule?
The TGI was > 100 µM.

What about the GI50 (ACHN renal) of the same molecule?
The GI50 was > 100 µM.

And the TGI (ACHN renal)?
Its TGI is > 100 µM.

And the GI50 (MALME-3M melanoma)?
Its GI50 is 40.9 µM.

And the TGI (MALME-3M melanoma)?
Its TGI is > 100 µM.

What about the GI50 (SR leukemia) of the same molecule?
The GI50 was 22 µM.

And the TGI (SR leukemia)?
Its TGI is 69.6 µM.

And the GI50 (786-0 renal)?
The GI50 was 27.1 µM.

And the TGI (786-0 renal)?
Its TGI is > 100 µM.

And the GI50 (HCT-15 colon)?
The GI50 was 23.8 µM.

What about the TGI (HCT-15 colon) of the same molecule?
The TGI was 69.9 µM.

And the GI50 (HCC-2998 colon)?
The GI50 was 34.1 µM.

And the TGI (HCC-2998 colon)?
The TGI was > 100 µM.

What about the GI50 (HS 578T breast) of the same molecule?
The GI50 was 60.7 µM.

What about the TGI (HS 578T breast) of the same molecule?
Its TGI is > 100 µM.

What about the GI50 (MOLT-4 leukemia) of the same molecule?
The GI50 was 32.6 µM.

And the TGI (MOLT-4 leukemia)?
Its TGI is > 100 µM.

And the GI50 (COLO 205 colon)?
Its GI50 is 17.9 µM.

And the TGI (COLO 205 colon)?
Its TGI is 34.4 µM.

And the GI50 (SNB-75 CNS)?
Its GI50 is > 100 µM.

And the TGI (SNB-75 CNS)?
The TGI was > 100 µM.

And the GI50 (HL-60(TB) leukemia)?
Its GI50 is 26.5 µM.

And the TGI (HL-60(TB) leukemia)?
Its TGI is > 100 µM.

And the GI50 (UACC-257 melanoma)?
The GI50 was 48.2 µM.

And the TGI (UACC-257 melanoma)?
The TGI was > 100 µM.

And the GI50 (KM12 colon)?
Its GI50 is 83.8 µM.

What about the TGI (KM12 colon) of the same molecule?
Its TGI is > 100 µM.

What about the GI50 (RPMI-8226 leukemia) of the same molecule?
The GI50 was 30.5 µM.

And the TGI (RPMI-8226 leukemia)?
The TGI was > 100 µM.

What about the GI50 (NCI-H226 lung) of the same molecule?
The GI50 was > 100 µM.

What about the TGI (NCI-H226 lung) of the same molecule?
The TGI was > 100 µM.

And the GI50 (NCI-H460 lung)?
Its GI50 is 38.2 µM.

And the TGI (NCI-H460 lung)?
Its TGI is > 100 µM.

And the GI50 (IGROV1 ovarian)?
Its GI50 is > 100 µM.

What about the TGI (IGROV1 ovarian) of the same molecule?
The TGI was > 100 µM.

And the GI50 (M14 melanoma)?
The GI50 was 35.5 µM.

And the TGI (M14 melanoma)?
The TGI was > 100 µM.

And the GI50 (NCI/ADR-RES ovarian)?
The GI50 was > 100 µM.

And the TGI (NCI/ADR-RES ovarian)?
The TGI was > 100 µM.

And the GI50 (LOX IMVI melanoma)?
Its GI50 is 19.5 µM.

And the TGI (LOX IMVI melanoma)?
The TGI was 41.5 µM.

And the GI50 (SF-268 CNS)?
The GI50 was > 100 µM.

What about the TGI (SF-268 CNS) of the same molecule?
Its TGI is > 100 µM.

What about the GI50 (OVCAR-8 ovarian) of the same molecule?
Its GI50 is > 100 µM.

And the TGI (OVCAR-8 ovarian)?
Its TGI is > 100 µM.

What about the GI50 (UO-31 renal) of the same molecule?
The GI50 was 57.5 µM.

What about the TGI (UO-31 renal) of the same molecule?
The TGI was > 100 µM.

And the GI50 (PC-3 prostate)?
The GI50 was 57.9 µM.

What about the TGI (PC-3 prostate) of the same molecule?
Its TGI is > 100 µM.

What about the GI50 (HOP-62 NSCLC) of the same molecule?
The GI50 was > 100 µM.

What about the TGI (HOP-62 NSCLC) of the same molecule?
The TGI was > 100 µM.

What about the GI50 (CAKI-1 renal) of the same molecule?
Its GI50 is 65.9 µM.

What about the TGI (CAKI-1 renal) of the same molecule?
The TGI was > 100 µM.
